Consider three compounds from article doi:10.1101/2024.07.14.603434v1 (biorxiv, 2024).

The Km is the substrate concentration at which the rate is half of its maximum.

Test [1] deals with T1, NagA (Streptomyces coelicolor, UniProt Q9KXV7).
T1 sequence (Q9KXV7 1-381): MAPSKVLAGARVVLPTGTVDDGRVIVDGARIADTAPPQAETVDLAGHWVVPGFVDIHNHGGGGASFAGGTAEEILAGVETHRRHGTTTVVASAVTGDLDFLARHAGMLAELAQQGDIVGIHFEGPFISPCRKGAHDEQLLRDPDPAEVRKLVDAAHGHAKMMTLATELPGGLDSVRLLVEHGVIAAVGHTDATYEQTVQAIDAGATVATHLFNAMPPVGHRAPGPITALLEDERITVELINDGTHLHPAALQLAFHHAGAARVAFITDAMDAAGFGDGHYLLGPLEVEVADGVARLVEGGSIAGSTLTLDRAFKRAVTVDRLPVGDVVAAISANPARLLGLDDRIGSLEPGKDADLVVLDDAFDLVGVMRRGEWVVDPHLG
Description: decrease of amide absorbance at […] nm. To be noted: phosphate buffer pH 7.4, 30 °C. It counts as biochemical.

For test [2], the target named is T2, NagS (Streptomyces coelicolor, UniProt Q9K3V1).
T2 sequence (Q9K3V1 1-251): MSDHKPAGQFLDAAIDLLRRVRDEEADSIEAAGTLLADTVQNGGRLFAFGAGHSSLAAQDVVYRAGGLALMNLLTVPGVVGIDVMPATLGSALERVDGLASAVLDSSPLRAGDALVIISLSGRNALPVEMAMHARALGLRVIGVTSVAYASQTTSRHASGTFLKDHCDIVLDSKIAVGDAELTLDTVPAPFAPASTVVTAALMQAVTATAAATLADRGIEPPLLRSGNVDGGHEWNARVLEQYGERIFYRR
The test is described as follows: UV absorbance of product at […] nm. Type of test: biochemical. To be noted: 100 mM phosphate, 100 mM NaCl, pH 7.4 buffer stock; 30 °C.

SMILES strings stand for the structures.

As to `CC(=O)N[C@H]1C(O)O[C@H](COP(=O)(O)O)[C@H](O)[C@@H]1O` (some centres unmarked) [GalNAc-6P], the Michaelis constant (Km) in test [1] stood at 2840 ± 410 µM.
Take `CC(=O)N[C@H]1C(O)O[C@H](COP(=O)(O)O)[C@@H](O)[C@@H]1O` (some centres unmarked) [GlcNAc-6P]: the Km is 450 ± 30 µM in test [2] and 1590 ± 210 µM in test [1].
Taken in the same sequence, the figures for `CC(=O)N[C@@H]1C(O)O[C@H](COP(=O)(O)O)[C@@H](O)[C@@H]1O` (some centres unmarked) [ManNAc-6P] were 680 ± 50 µM and 2400 ± 440 µM.
